US9611223B2, “3-aryl-5-substituted-isoquinolin-1-one compounds and their therapeutic use” (INSTITUTE OF CANCER RESEARCH: ROYAL CANCER HOSPITAL (THE), priority 2013, dated 2017)
Read-outs that look alike come from different tables or passages of the source.

How the values were obtained:
[1] = test system: HT55 cells; experiment: Tumour Cell Inhibition Assay (HT55 cells); type: cell-based; details: Homo sapiens, HT55, 120 h, Tumour Cell Inhibition Assay, five day exposure
Experimental: Tumour Cell Inhibition in Colorectal Tumour Cells
In order to determine the efficacy of acute dosing of putative TNKS inhibitors, five day exposure cell viability assays were carried out. This included the sparse seeding of cells in a 96-well plate followed by continuous dosing of cells over a five day period.
Appropriate cell lines (HT55, COLO320DM and SW620) were seeded at 500 cells/well in a 96-well plate in MEM (HT55), RPMI (COLO320DM) or DMEM (SW620) supplemented with FBS. After overnight incubation, cells were treated with the appropriate putative TNKS inhibitor in 6 or 10 concentrations ranging from 0 μM to 10 μM at 0.2% final DMSO concentration in appropriate media supplemented with 10% or 0.5% FBS. Dosages were carried out in triplicate. Termination of the assay and measurement of cell viability was achieved by the use of Cell Titre Glo reagent and luminescence measurement on an appropriate plate reader.
Dose response curves used to determine SF50 values were Log transformed and analysed by non-linear regression analysis (variable slope) using Prism (GraphPad Software, Inc).

[2] = target: T1, TNKS1 (Homo sapiens, UniProt O95271, M1266I); experiment: TNKS1/PARP Biochemical Assay
T1 construct: expresses the active PARP domain of TNKS1 as a polyhistidine tagged protein; made in house; host or cells: E. coli Rosetta2(DE3)
T1 sequence (O95271 1112-1317 M1266I): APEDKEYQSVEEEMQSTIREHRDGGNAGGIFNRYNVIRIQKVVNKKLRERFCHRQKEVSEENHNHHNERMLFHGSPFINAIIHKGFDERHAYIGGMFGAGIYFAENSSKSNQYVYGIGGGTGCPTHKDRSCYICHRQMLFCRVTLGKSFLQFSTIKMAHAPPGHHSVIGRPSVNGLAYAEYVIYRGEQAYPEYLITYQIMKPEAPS
Experimental: TNKS1/PARP Biochemical Assay
Tankyrase activity was assayed using a 96-well format HT Universal Chemiluminescent PARP Assay Kit (Trevigen, Inc, cat. no. 4676-096-K) according to the manufacturer's instructions. In short, tankyrase/PARP activity is quantified by the incorporation of biotinylated nicotinamide adenine dinucleotide (biotin-NAD^+) onto the immobilised pseudo substrate, Histone. The extent of poly(Biotin-ADP)ribosylation (PARylation) in the presence of increasing dose of inhibitor is then quantified by binding of streptavidin conjugated horse radish peroxidase (strep-HRP) followed by chemiluminescent detection.
Prior to assay initiation, inhibitor stocks were prepared in aqueous DMSO (10% (v/v)) from 5 millimolar (mM) stock in 100% DMSO (Sigma Aldrich, cat. no. 265855) as 10× concentrations. For the primary assay (i.e., single dose at 1 micromolar (μM) final concentration) this corresponded to 10 μM in 10% DMSO. For IC50 determination, this corresponded to 100 μM, 30 μM, 10 μM, 3.0 μM, 1.0 μM, 0.30 μM, 0.10 μM and 0 μM in 10% DMSO for final concentrations of 10 μM, 3.0 μM, 1.0 μM, 0.30 μM, 0.10 μM, 0.030 μM, 0.010 μM, and 0 μM with 1% (v/v) final DMSO. The assay was initiated by the addition of 10× inhibitor (5 microliters (μL)) or 10% aqueous DMSO (5 μL) to triplicate wells. Twenty microliters of diluted TNKS1 protein (200 nanomolar (nM) final conc.) in PARP buffer (Trevigen, Inc, cat. no. 4671-096-02) was added to each histone coated well, which was previously hydrated with PARP buffer. Triplicate wells with 1% DMSO/buffer alone (no enzyme) were also added as a measure of assay ‘noise’. Positive control for PARP inhibition included the addition of 4-amino-1,8-naphthalimide (Sigma Aldrich, cat. no A0966) in corresponding doses.
The mixture was incubated for 10 minutes at room temperature and the PARylation reaction initiated by the addition of PARP cocktail (25 μL, Trevigen, Inc) containing biotin-NAD^+ (Trevigen, Inc, cat. no. 4670-500-01), activated DNA (Trevigen, Inc, cat. no. 4671-096-06) and PARP buffer. The reaction was incubated for 1.5 hours (for TNKS1) or 1 hour (for PARP1) at room temperature. The reaction mixture was then removed by aspiration and the wells washed (3×200 μL) with phosphate buffered saline containing Triton X-100 (0.1% (v/v), Sigma Aldrich cat. no. T8787). The wells were then washed (3×200 μL) with phosphate buffered saline and then incubated with strep-HRP (50 μL, Trevigen, Inc, cat. no. 4800-30-06) in strep-diluent (1:500 dilution, Trevigen Inc, cat. no. 4671-096-04) for 1 hour at room temperature. The Strep-HRP mixture was then aspirated and the wells washed (3×200 μL) with phosphate buffered saline containing Triton X-100 (0.1% (v/v)) followed by phosphate buffered saline (3×200 μL) and then incubated with PeroxyGlow™ reagent (100 μL, Trevigen, Inc, cat. nos. 4675-096-01, 4675-096-02, room temperature, mixed 1:1).
The amount of light emitted as a result of the peroxidase-chemiluminescent reagent reaction was in proportion to the extent of poly(Biotin-ADP)ribosylation and was immediately measured with a Victor^2 plate reader (Perkin Elmer, luminescence detection assay, luminescent units described as ‘Counts Per Second’ (CPS)). The data were normalised to the DMSO control after subtraction of ‘noise’ and was expressed as % PARP activity as a function of inhibitor dose. Inhibition was expressed as 100%−(% PARP activity). Dose response curves used to determine IC50 values were Log transformed and analysed by non-linear regression analysis (variable slope) using Prism (GraphPad Software, Inc) and were presented as IC50 with 95% confidence interval to determine relative potency.
Tankyrase1 (pNIC-Bsa4-TNKS1^PARP) expression construct was obtained from the Structural Genomics Consortium (SGC) and expresses the active PARP domain of TNKS1 as a polyhistidine tagged protein. […]

[3] = test system: DLD1 cells; experiment: Long-Term Clonogenic Assay (DLD1 cells); type: cell-based; details: Homo sapiens, DLD-1, 12-14 days, read-out: cell inhibitory SF50 (DLD1)
Experimental: Clonogenic Inhibition in DLD1 or HT55 Cells
In order to determine the efficacy of chronic dosing of putative TNKS inhibitors, long term clonogenic or ‘colony formation’ assays were carried out. This included the sparse seeding of cells in a 6-well dish followed by continuous dosing of cells over 12-14 days (depending on relative cell growth). Appropriate cell lines (DLD1 or HT55) were seeded at 500 cells/well in a 6-well dish in DMEM supplemented with FBS. After overnight incubation, cells were treated with the appropriate putative TNKS inhibitor at 10 μM, 3 μM, 1 μM, 0.30 μM, 0.1 μM and 0 μM at 0.2-1% final DMSO concentration (cell line dependent) in DMEM supplemented with 10% FBS (DLD1 cells were dosed in DMEM supplemented with 0.5% FBS). Dosages were carried out in triplicate. Cell media containing compound or DMSO only was replenished every 48 hours. On termination of the assay, plates were read with Cell Titre Glo reagent and luminescence measured on an appropriate plate reader.
The data was normalised to the DMSO control and was expressed as surviving fraction as a function of inhibitor dose. Dose response curves used to determine SF50 values were Log transformed and analysed by non-linear regression analysis (variable slope) using Prism (GraphPad Software, Inc).

Structure (SMILES)	IC50 ([1]; read-out: cell inhibitory SF50 (HT55)) [µM]	IC50 [2] [µM]	IC50 ([1]; replicate, read-out: cell inhibitory SF50 (HT55), replicate) [µM]	IC50 [3] [µM]
CN(C)C1CCN(Cc2ccc(-c3cc4c(C#N)cccc4c(=O)[nH]3)cc2)C1 (stereo not shown) [IQ-011]	< 5	< 0.1	–	–
CN(C)C1CCN(Cc2ccc(-c3cc4c(C#N)cccc4c(=O)[nH]3)cc2)CC1 [IQ-012]	–	< 0.05	1.8	–
CN1CCN(Cc2ccc(-c3cc4c(C#N)cccc4c(=O)[nH]3)cc2)CC1 [IQ-002, 3-[4-(4-Methyl-piperazin-1-ylmethyl)-phenyl]-1-oxo-1,2-dihydro-isoquinoline-5-carbonitrile]	–	< 0.05	–	2.3
CN1CCN(Cc2ccc(-c3cc4c(C#N)cc(F)cc4c(=O)[nH]3)cc2)CC1 [IQ-014]	–	< 0.1	–	–
